Experimental data taken from patent publication US10851062B2, “Substituted heteroaryl compound, composition containing same, and application thereof” (Shenzhen TargetRx, Inc., priority 2016, dated 2020).
Where two headings read alike, the source gives them in different places.

How the values were obtained:
[1] = Metabolic stability in rat liver microsomes; type: in vitro ADME, SD rat; settings: rat liver microsomes 0.5 mg/mL, compound 1 μM, NADPH, 37° C.; for microsomal CLint at 1 μM / half-life at 1 μM: Sprague-Dawley, pH 7.4; for half-life at 1 μM: read-out: t1/2 in rat liver microsomes
Protocol: (§1) Experiments in microsomes: Human liver microsomes: 0.5 mg/mL, Xenotech; Rat liver microsomes: 0.5 mg/mL, Xenotech; Coenzyme (NADPH/NADH): 1 mM, Sigma Life Science; Magnesium chloride: 5 mM, 100 mM phosphate buffer (pH 7.4).
(§2) Preparation of stock solution: Powder of the example compound 1-7 was accurately weighed and dissolved in DMSO to 5 mM. Preparation of phosphate buffer (100 mM, pH7.4): A pre-formulated 0.5M potassium dihydrogen phosphate (150 mL) was mixed with 0.5M dibasic potassium phosphate (700 mL). The pH of the mixture was adjusted to 7.4 with 0.5M dibasic potassium phosphate solution. The mixture was diluted 5-fold with ultrapure water before use, and magnesium chloride was added to obtain a phosphate buffer (100 mM) containing 100 mM potassium phosphate, 3.3 mM magnesium chloride, pH 7.4. A NADPH regeneration system solution (containing 6.5 mM NADP, 16.5 mM G-6-P, 3 U/mL G-6-PD, 3.3 mM magnesium chloride) was prepared and placed on wet ice prior to use. Preparation of stop solution: acetonitrile solution containing 50 ng/mL propranolol hydrochloride and 200 ng/mL tolbutamide (internal standard). 25057.5 μL of phosphate buffer (pH 7.4) was taken into a 50 mL centrifuge tube, to which 812.5 μL human liver microsomes were added, and mixed to obtain a liver microsome dilution solution with a protein concentration of 0.625 mg/mL. 25057.5 μL of phosphate buffer (pH 7.4) was taken into a 50 mL centrifuge tube, to which 812.5 μL SD rat liver microsomes were added, and mixed to obtain a liver microsome dilution solution with a protein concentration of 0.625 mg/mL.
(§3) Incubation of the samples: The stock solution of the respective compound was respectively diluted to 0.25 mM with an aqueous solution containing 70% acetonitrile, and used as a working solution, ready for use. 398 μL of the dilution solution of human liver microsomes or rat liver microsome were added to a 96-well incubation plate (N=2), respectively, and 2 μL of 0.25 mM working solution was added and mixed.
(§4) Metabolic stability assay: 300 μL of pre-chilled stop solution was added to each well of a 96-well deep well plate and placed on ice as a stop plate. The 96 well incubation plate and NADPH regeneration system were placed in a 37° C. water bath box, shaken at 100 rpm and pre-incubated for 5 min. 80 μL of incubation solution was taken out from each well of the incubation plate and added to the stop plate, mixed, and replenished with 20 μL of NADPH regeneration system solution as a 0-min sample. 80 μL of NADPH regeneration system solution was added to each well of the incubation plate to start the reaction and start counting. […] Separately, 100 μL of the reaction solution was taken at 10, 30, and 90 min reaction, respectively, added to a stop plate, and vortexed for 3 minutes to terminate the reaction. The stop plate was centrifuged at 5000×g at 4° C. for 4 min. 100 μL of the supernatant was added to a 96-well plate to which 100 μL of distilled water was previously added, mixed, and analyzed by LC-MS/MS.
(§5) Data analysis: The peak areas of the corresponding compound and internal standard were detected by LC-MS/MS system, and the ratio of the peak area of the compound to the internal standard was calculated. The slope was measured by plotting the natural logarithm of the percent of compound remaining versus time, and t1/2 and CLint were calculated according to the formula, where V/M is equal to 1/protein concentration.

[2] = Metabolic stability in human liver microsomes; type: in vitro ADME; settings: pH 7.4, human liver microsomes 0.5 mg/mL, compound 1 μM, NADPH, 37° C.; for half-life at 1 μM: read-out: t1/2 in human liver microsomes
Protocol: as §1, §2, §3, §4, §5

[3] = Pharmacokinetic evaluation in rats; type: in vivo, Sprague-Dawley rats; settings: rat; for AUC(0-inf) / AUC(0-t) / Tmax / MRT inf / F / half-life / Cmax: male, Sprague-Dawley; for AUC(0-inf) / AUC(0-t) / Tmax / MRT inf / Cmax: plasma; for MRT inf: read-out: MRTINF_pred; for F / half-life: in vivo
Protocol: 6 male Sprague-Dawley rats (7-8 weeks old, and weighing approximately 210 g) were divided into 2 groups with 3 rats in each group. The rats were intravenously or orally administered a single dose of compound (3 mg/kg intravenously, 10 mg/kg orally) to compare pharmacokinetic differences.
The rats were raised on standard food and water. Fasting was started 16 hours before the test. The drug was dissolved with PEG400 and dimethyl sulfoxide. The blood samples were collected from eyelids at the time points of 0.083 hours, 0.25 hours, 0.5 hours, 1 hour, 2 hours, 4 hours, 6 hours, 8 hours, 12 hours, and 24 hours after administration.
Rats were briefly anesthetized after inhalation of diethyl ether and 300 μL of blood sample was collected from the eyelids into test tubes. There was 30 μL of 1% heparin salt solution in the test tube. Tubes were dried at 60° C. overnight before use. After the blood sample was collected at a later time point, the rats were sacrificed after ether anesthesia.
Immediately after the collection of the blood sample, the test tube was gently inverted at least 5 times to ensure sufficient mixing and then placed on ice. The blood sample was centrifuged at 5000 rpm at 4° C. for 5 minutes to separate the plasma from the red blood cells. 100 μL of plasma was aspirated into a clean plastic centrifuge tube with a pipette, marking with the name of the compound and time point. Plasma was stored at −80° C. prior to analysis. The concentration of the compound of the present disclosure in plasma was determined by LC-MS/MS. The pharmacokinetic parameters were calculated based on the blood concentration of each animal at different time points.

microsomal CLint at 1 μM [1]	half-life at 1 μM [1]	microsomal CLint at 1 μM [2]	half-life at 1 μM [2]	AUC(0-inf) ([3]; IV, 3 mg/kg single dose)	AUC(0-t) ([3]; IV, 3 mg/kg single dose)	Tmax ([3]; IV, 3 mg/kg single dose)	MRT inf ([3]; IV, 3 mg/kg single dose)	AUC(0-inf) ([3]; PO, 10 mg/kg single dose)	AUC(0-t) ([3]; PO, 10 mg/kg single dose)	Tmax ([3]; PO, 10 mg/kg single dose)	MRT inf ([3]; PO, 10 mg/kg single dose)	F [3]	half-life ([3]; iv, 3 mg/kg)	half-life ([3]; po, 10 mg/kg)	Cmax ([3]; IV, 3 mg/kg single dose)	Cmax ([3]; PO, 10 mg/kg single dose)	Vz_pred ([3]; IV, 3 mg/kg single dose)	Vz_pred ([3]; PO, 10 mg/kg single dose)	Compound	also measured
< 8.6 µL/min/mg	> 2.42 h	< 8.6 µL/min/mg	> 2.42 h	–	–	–	–	–	–	–	–	–	–	–	–	–	–	–	[2H]Cc1nc(C(=O)NCC(=O)O)c(O)c2ccc(Oc3ccccc3)cc12 [Compound 13, N-[(4-hydroxy-1-d-methyl-7-phenoxy-3-isoquinolinyl)carbonyl] glycine]	–
< 8.6 µL/min/mg	> 2.42 h	–	–	51.6 µg·h/mL	51.6 µg·h/mL	0.08 h	2.84 h	261 µg·h/mL	260 µg·h/mL	4 h	5.87 h	151.17%	2.43 h	2.77 h	19000 ng/mL	24600 ng/mL	0.21 L/kg	0.16 L/kg	[2H]C([2H])(NC(=O)c1nc(C)c2cc(Oc3ccccc3)ccc2c1O)C(=O)O [Compound 11, N-[(4-hydroxy-1-methyl-7-phenoxy-3-isoquinolinyl)carbonyl]-2,2-d2-glycine]	–
< 8.6 µL/min/mg	> 2.42 h	< 8.6 µL/min/mg	> 2.42 h	–	–	–	–	–	–	–	–	–	–	–	–	–	–	–	[2H]C([2H])(NC(=O)c1nc(C([2H])([2H])[2H])c2cc(Oc3ccccc3)ccc2c1O)C(=O)O [Compound 36, N-[(4-hydroxy-1-(d3-methyl)-7-phenoxy-3-isoquinolinyl)carbonyl]-2,2-d2-glycine]	–
< 8.6 µL/min/mg	> 2.42 h	< 8.6 µL/min/mg	> 2.42 h	63.8 µg·h/mL	63.8 µg·h/mL	0.08 h	2.82 h	196 µg·h/mL	196 µg·h/mL	2.83 h	5.03 h	92.21%	2.08 h	2.78 h	21100 ng/mL	22100 ng/mL	0.15 L/kg	0.20 L/kg	Cc1nc(C(=O)NCC(=O)O)c(O)c2ccc(Oc3ccccc3)cc12 [FG-4592, reference compound]	–
< 8.6 µL/min/mg	> 2.42 h	< 8.6 µL/min/mg	> 2.42 h	–	–	–	–	–	–	–	–	–	–	–	–	–	–	–	[2H]c1cc([2H])c(Oc2ccc3c(O)c(C(=O)NC([2H])([2H])C(=O)O)nc(C)c3c2)c([2H])c1 [Compound 47]	–
–	–	–	–	–	–	–	–	–	–	–	–	–	–	–	–	–	–	–	N-[(4-hydroxy-1-(d-methyl)-7-phenoxy-3-isoquinolinyl) carbonyl]-2,2-d2-glycine [Compound 34]	CLint in rat liver microsomes [1]: <8.6 µL/min/mg; t1/2 in rat liver microsomes [1]: >2.42 h
< 8.6 µL/min/mg	> 2.42 h	< 8.6 µL/min/mg	> 2.42 h	–	–	–	–	–	–	–	–	–	–	–	–	–	–	–	[2H]c1cccc(Oc2ccc3c(O)c(C(=O)NCC(=O)O)nc(C)c3c2)c1 [Compound 46, N-[(4-hydroxy-1-methyl-7-(3-d-phenoxy)-3-isoquinolinyl)carbonyl]glycine]	–
< 8.6 µL/min/mg	> 2.42 h	< 8.6 µL/min/mg	> 2.42 h	–	–	–	–	–	–	–	–	–	–	–	–	–	–	–	[2H]c1c([2H])c([2H])c(Oc2ccc3c(O)c(C(=O)NC([2H])([2H])C(=O)O)nc(C)c3c2)c([2H])c1[2H] [Compound 48, N-[(4-hydroxy-1-methyl-7-(d5-phenoxy))-3-(3-isoquinolinyl)carbonyl]-2,2-d2-glycine]	–
< 8.6 µL/min/mg	> 2.42 h	< 8.6 µL/min/mg	> 2.42 h	55.9 µg·h/mL	55.9 µg·h/mL	0.75 h	3.14 h	185 µg·h/mL	185 µg·h/mL	0.83 h	5.33 h	99.05%	2.49 h	2.43 h	12200 ng/mL	17700 ng/mL	0.18 L/kg	0.21 L/kg	[2H]c1c([2H])c([2H])c(Oc2ccc3c(O)c(C(=O)NCC(=O)O)nc(C)c3c2)c([2H])c1[2H] [Compound 32, N-[(4-hydroxy-1-methyl-7-(d5-phenoxy)-3-isoquinolinyl)carbonyl] glycine]	–
< 8.6 µL/min/mg	> 2.42 h	< 8.6 µL/min/mg	> 2.42 h	–	–	–	–	–	–	–	–	–	–	–	–	–	–	–	[2H]c1cc([2H])c(Oc2ccc3c(O)c(C(=O)NCC(=O)O)nc(C)c3c2)c([2H])c1 [Compound 23]	–
< 8.6 µL/min/mg	> 2.42 h	< 8.6 µL/min/mg	> 2.42 h	49.5 µg·h/mL	49.4 µg·h/mL	0.08 h	2.85 h	222 µg·h/mL	218 µg·h/mL	2.67 h	5.83 h	132.44%	2.89 h	3.33 h	19500 ng/mL	25400 ng/mL	0.25 L/kg	0.24 L/kg	[2H]c1cccc(Oc2ccc3c(O)c(C(=O)NC([2H])([2H])C(=O)O)nc(C)c3c2)c1 [Compound 49, N-[(4-hydroxy-1-methyl-7-(3-d-phenoxy)-3-isoquinolinyl)carbonyl]-2,2-d2-glycine]	–
